Assay results as given in patent EP0626016B1, “[…] […]” (BRITISH TECHNOLOGY GROUP LIMITED, priority 1992, dated 1993).

Columns and labels:
HRP Type VIII = assay: PBBA enhancement with different peroxidase enzymes (Example 4); assay type: biochemical, horseradish
Description: (§1) Stock solutions (1mg/ml in 0.1mol/l Tris buffer, pH 8.6) of horseradish peroxidase Type VII, Type VIII and Arthromyces ramosus peroxidase (Sigma) were prepared. The luminol-hydrogen peroxide reagent was prepared as described previously. Luminol-hydrogen peroxide reagent (100µl, 1:10 dilution), either 40µl of PBBA (0.01mg/ml in 0.1mol/l Tris buffer, pH 8.6) or as a control, 40µl of Tris buffer (0.1mol/l, pH 8.6), and 10µl of HRP Type VII (1:50,000 dilution, 2ng) were added to a cuvette. The reagents were mixed and the light emission was recorded after 5 minutes using a Berthold Biolumat LB9500C.
(§2) The above experiment was repeated and the HRP Type VII was replaced by HRP Type VIII (2ng) or Arthromyces ramosus peroxidase (20pg).

HRP Type VII = assay: as above; assay type: biochemical, horseradish; conditions: for Signal Reagent with PBBA: 40µl of PBBA 0.01mg/ml
Description: Stock solutions (1mg/ml in 0.1mol/l Tris buffer, pH 8.6) of horseradish peroxidase Type VII, Type VIII and Arthromyces ramosus peroxidase (Sigma) were prepared. […] Luminol-hydrogen peroxide reagent (100µl, 1:10 dilution), either 40µl of PBBA (0.01mg/ml in 0.1mol/l Tris buffer, pH 8.6) or as a control, 40µl of Tris buffer (0.1mol/l, pH 8.6), and 10µl of HRP Type VII (1:50,000 dilution, 2ng) were added to a cuvette. The reagents were mixed and the light emission was recorded after 5 minutes using a Berthold Biolumat LB9500C.

[1] = molecular target: T1, Anti-mouse IgG (whole molecule) peroxidase conjugate (Armoracia rusticana, UniProt P00433); assay: Assay of peroxidase-antibody conjugate utilizing PBBA (Example 5); assay type: biochemical; conditions: for Signal (with PBBA): 40µl of PBBA 0.01 mg/ml; for Signal: Background: with PBBA
T1 sequence (P00433 31-338 limits assumed): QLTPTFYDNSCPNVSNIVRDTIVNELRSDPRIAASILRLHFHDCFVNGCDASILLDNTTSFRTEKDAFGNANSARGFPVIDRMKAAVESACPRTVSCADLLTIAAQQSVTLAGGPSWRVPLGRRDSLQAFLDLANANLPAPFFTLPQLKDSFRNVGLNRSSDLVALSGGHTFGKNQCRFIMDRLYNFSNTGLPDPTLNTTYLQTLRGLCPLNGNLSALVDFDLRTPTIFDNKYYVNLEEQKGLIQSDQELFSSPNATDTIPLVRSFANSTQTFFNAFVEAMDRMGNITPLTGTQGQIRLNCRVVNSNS
Description: Anti-mouse IgG (whole molecule) peroxidase conjugate (Sigma Chemical Co.) was diluted (1:5000) in 0.1 mol/l Tris buffer (pH 8.6). The luminol-hydrogen peroxide was prepared as described previously. The following reagents were added to a cuvette: 100µl of luminol-hydrogen peroxide (1:10 dilution), either 40µl of PBBA (0.01 mg/ml in 0.1 mol/l Tris buffer) or as a control, 40µl of Tris buffer (0.1 mol/l, pH 8.6), and different amounts of anti-mouse IgG (5µl, 10µl, 20µl, 30µl, 40µl). The reagents were mixed and the light emission was measured using a Berthold Biolumat LB9500C.

[2] = molecular target: T2, Arthromyces ramosus peroxidase (Arthromyces ramosus, UniProt P28313); assay: PBBA enhancement with different peroxidase enzymes (Example 4); assay type: biochemical
T2 sequence (P28313 21-364): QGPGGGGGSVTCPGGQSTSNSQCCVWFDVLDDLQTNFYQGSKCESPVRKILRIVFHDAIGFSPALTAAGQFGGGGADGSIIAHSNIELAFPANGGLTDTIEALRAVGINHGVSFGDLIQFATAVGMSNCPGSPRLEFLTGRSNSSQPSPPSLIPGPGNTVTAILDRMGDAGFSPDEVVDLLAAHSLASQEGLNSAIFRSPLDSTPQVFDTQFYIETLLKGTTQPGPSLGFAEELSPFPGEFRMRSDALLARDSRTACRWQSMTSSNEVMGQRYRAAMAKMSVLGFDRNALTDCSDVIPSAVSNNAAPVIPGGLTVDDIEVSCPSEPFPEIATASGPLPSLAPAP
Description: as §1, §2

HRP Type VIA = molecular target: T3, HRP Type VIA (Armoracia rusticana, UniProt P00433); assay: Effect of PBBA amount on the luminol or isoluminol-H2O2-HRP chemiluminescent reaction (Example 1, part 1); assay type: biochemical, horseradish; conditions: for Signal (no HRP) / Signal (with HRP): after 5 minutes
T3 sequence (P00433 31-338): T1 sequence (P00433 31-338 limits assumed)
Description: PBBA was added in various concentrations (range 0.05µg to 0.5µg) to a luminol-H2O2 reaction in the presence and absence of HRP. […] These two solutions were combined and protected from light. The luminol-hydrogen peroxide reagent (100µl of a 1:10 dilution) was added to a cuvette together with either 10µl of HRP Type VI A (HRP, Sigma Chemical Co., 1:50,000 dilution) or as a control 10µl of Tris Buffer (0.1mol/l, pH 8.6), and various amounts of PBBA (Aldrich Chemical Co.), range 0.05µg-0.5µg in 0.1mol/l Tris, pH 8.6). The reagents were mixed and the light emission recorded after 5 minutes on a Berthold Biolumat LB9500C.
This experiment was repeated, replacing the luminol with isoluminol. […]

[3] = in the presence of PBBA, result in words

**Q.** `OB(O)c1ccc(Br)cc1` [PBBA, para-bromophenylboronic acid] was tested. Which “Signal Reagent with PBBA” value (HRP Type VIII; HRP Type VIII 2ng, 40µl of PBBA 0.01mg/ml, after 5 minutes) did it give?
**A.** Its value is 156,204.

**Q.** And the “Signal: Background” value (HRP Type VIII; HRP Type VIII, with PBBA)?
**A.** The value was 5.6.

**Q.** What about the “Signal Reagent with PBBA” value (HRP Type VII; Blank (no peroxidase)) of the same compound?
**A.** Its value is 27,820.

**Q.** And the “Signal Reagent with PBBA” value (HRP Type VII; HRP Type VII 2ng, after 5 minutes)?
**A.** The value was 49,703.

**Q.** And the “Signal: Background” value (HRP Type VII; HRP Type VII, with PBBA)?
**A.** The value was 1.8.

**Q.** And the “level of light output” value (HRP Type VII; any of the peroxidases tested (HRP Type VII, Type VIII, Arthromyces ramosus peroxidase), result in words)?
**A.** Its value is “did not increase the level of light output”.

**Q.** And the “signal to background ratio” value (HRP Type VII; in all cases (HRP Type VII, Type VIII, Arthromyces ramosus peroxidase), result in words)?
**A.** The value was “improved in all cases”.

**Q.** What about the “Signal (with PBBA)” value ([1]; Anti-mouse IgG-HRP 0 (µl)) of the same compound?
**A.** Its value is 18,832.

**Q.** What about the “Signal (with PBBA)” value ([1]; Anti-mouse IgG-HRP 5 (µl), 1:5000 dilution) of the same compound?
**A.** Its value is 27,665.

**Q.** What about the “Signal: Background” value ([1]; Anti-mouse IgG-HRP 5 (µl)) of the same compound?
**A.** The value was 1.5.

**Q.** What about the “Signal (with PBBA)” value ([1]; Anti-mouse IgG-HRP 10 (µl), 1:5000 dilution) of the same compound?
**A.** The value was 32,849.

**Q.** And the “Signal: Background” value ([1]; Anti-mouse IgG-HRP 10 (µl))?
**A.** The value was 1.7.

**Q.** And the “Signal (with PBBA)” value ([1]; Anti-mouse IgG-HRP 20 (µl), 1:5000 dilution)?
**A.** Its value is 68,994.

**Q.** What about the “Signal: Background” value ([1]; Anti-mouse IgG-HRP 20 (µl)) of the same compound?
**A.** Its value is 3.7.

**Q.** What about the “Signal (with PBBA)” value ([1]; Anti-mouse IgG-HRP 30 (µl), 1:5000 dilution) of the same compound?
**A.** The value was 407,087.

**Q.** And the “Signal: Background” value ([1]; Anti-mouse IgG-HRP 30 (µl))?
**A.** Its value is 21.6.

**Q.** What about the light emission [1, 3] of the same compound?
**A.** Its light emission is “increased”.

**Q.** What about the “signal to background ratio for the assay of the HRP conjugate” value [1, 3] of the same compound?
**A.** The value was “significantly improved”.

**Q.** And the “Signal Reagent with PBBA” value ([2]; Arthromyces ramosus peroxidase 20pg, 40µl of PBBA 0.01mg/ml, after 5 minutes)?
**A.** The value was 58,208.

**Q.** And the “Signal: Background” value ([2]; Arthromyces ramosus peroxidase, with PBBA)?
**A.** Its value is 2.1.

**Q.** And the “light emission in the luminol-HRP-peroxidase reaction” value (HRP Type VIA; Column (a), result in words)?
**A.** Its value is “enhances the light emission”.

**Q.** And the “background level of luminescence” value (HRP Type VIA; Column (b), result in words)?
**A.** Its value is “reduces the background level of luminescence”.

**Q.** What about the “Signal: Background ratio” value (HRP Type VIA; Isoluminol, PBBA 0.05 µg) of the same compound?
**A.** The value was 2.1.

**Q.** And the “Signal (no HRP)” value (HRP Type VIA; Isoluminol, PBBA 0.05 µg)?
**A.** The value was 7664.

**Q.** What about the “Signal (with HRP)” value (HRP Type VIA; Isoluminol, PBBA 0.05 µg) of the same compound?
**A.** The value was 15,772.

**Q.** And the “Signal: Background ratio” value (HRP Type VIA; Isoluminol, PBBA 0.1 µg)?
**A.** The value was 2.7.

**Q.** And the “Signal (no HRP)” value (HRP Type VIA; Isoluminol, PBBA 0.1 µg)?
**A.** Its value is 6114.

**Q.** What about the “Signal (with HRP)” value (HRP Type VIA; Isoluminol, PBBA 0.1 µg) of the same compound?
**A.** The value was 16,553.

**Q.** And the “Signal: Background ratio” value (HRP Type VIA; Isoluminol, PBBA 0.2 µg)?
**A.** Its value is 11.9.

**Q.** What about the “Signal (no HRP)” value (HRP Type VIA; Isoluminol, PBBA 0.2 µg) of the same compound?
**A.** Its value is 5736.

**Q.** What about the “Signal (with HRP)” value (HRP Type VIA; Isoluminol, PBBA 0.2 µg) of the same compound?
**A.** The value was 68,282.

**Q.** What about the “Signal: Background ratio” value (HRP Type VIA; Isoluminol, PBBA 0.3 µg) of the same compound?
**A.** The value was 110.4.

**Q.** What about the “Signal (no HRP)” value (HRP Type VIA; Isoluminol, PBBA 0.3 µg) of the same compound?
**A.** The value was 5613.

**Q.** What about the “Signal (with HRP)” value (HRP Type VIA; Isoluminol, PBBA 0.3 µg) of the same compound?
**A.** Its value is 619,880.

**Q.** What about the “Signal: Background ratio” value (HRP Type VIA; Isoluminol, PBBA 0.4 µg) of the same compound?
**A.** The value was 147.0.

**Q.** What about the “Signal (no HRP)” value (HRP Type VIA; Isoluminol, PBBA 0.4 µg) of the same compound?
**A.** Its value is 5278.

**Q.** What about the “Signal (with HRP)” value (HRP Type VIA; Isoluminol, PBBA 0.4 µg) of the same compound?
**A.** Its value is 775,965.

**Q.** And the “Signal: Background ratio” value (HRP Type VIA; Luminol, PBBA 0.05 µg)?
**A.** Its value is 6.1.

**Q.** What about the “Signal (no HRP)” value (HRP Type VIA; Luminol, PBBA 0.05 µg) of the same compound?
**A.** Its value is 16,556.

**Q.** What about the “Signal (with HRP)” value (HRP Type VIA; Luminol, PBBA 0.05 µg) of the same compound?
**A.** The value was 101,227.

**Q.** And the “Signal: Background ratio” value (HRP Type VIA; Luminol, PBBA 0.1 µg)?
**A.** The value was 6.7.

**Q.** And the “Signal (no HRP)” value (HRP Type VIA; Luminol, PBBA 0.1 µg)?
**A.** The value was 16,065.

**Q.** And the “Signal (with HRP)” value (HRP Type VIA; Luminol, PBBA 0.1 µg)?
**A.** Its value is 108,213.

**Q.** And the “Signal: Background ratio” value (HRP Type VIA; Luminol, PBBA 0.2 µg)?
**A.** Its value is 8.1.

**Q.** What about the “Signal (no HRP)” value (HRP Type VIA; Luminol, PBBA 0.2 µg) of the same compound?
**A.** The value was 13,890.

**Q.** And the “Signal (with HRP)” value (HRP Type VIA; Luminol, PBBA 0.2 µg)?
**A.** The value was 112,644.

**Q.** What about the “Signal: Background ratio” value (HRP Type VIA; Luminol, PBBA 0.3 µg) of the same compound?
**A.** The value was 11.2.

**Q.** What about the “Signal (no HRP)” value (HRP Type VIA; Luminol, PBBA 0.3 µg) of the same compound?
**A.** The value was 10,899.

**Q.** And the “Signal (with HRP)” value (HRP Type VIA; Luminol, PBBA 0.3 µg)?
**A.** The value was 122,116.

**Q.** And the “Signal: Background ratio” value (HRP Type VIA; Luminol, PBBA 0.4 µg)?
**A.** Its value is 12.5.

**Q.** What about the “Signal (no HRP)” value (HRP Type VIA; Luminol, PBBA 0.4 µg) of the same compound?
**A.** Its value is 10,706.

**Q.** What about the “Signal (with HRP)” value (HRP Type VIA; Luminol, PBBA 0.4 µg) of the same compound?
**A.** The value was 133,401.

**Q.** What about the “Signal: Background ratio” value (HRP Type VIA; Luminol, PBBA 0.5 µg) of the same compound?
**A.** Its value is 16.9.

**Q.** And the “Signal (no HRP)” value (HRP Type VIA; Luminol, PBBA 0.5 µg)?
**A.** The value was 8,963.

**Q.** And the “Signal (with HRP)” value (HRP Type VIA; Luminol, PBBA 0.5 µg)?
**A.** The value was 151,572.
